Assay results from patent US20210169690A1, “Self-Retaining Implantable Drug Delivery Device” (GoldenBiotech, LLC, priority 2019, published 2021).

Columns and labels:
Type in all cases: physicochemical
[1] = Visual examination of physical appearance and mixing of drug-loaded silicone polymer matrix test samples
Description: To test the loading capacity of a silicone elastomer polymer matrix for a prostaglandin analogue, polymer matrix with different amounts and types of a prostaglandin analogue were made and the physical and mechanical properties of the resulting polymerized drug-loaded matrix were characterized (Tables 1-3). These polymer matrix test samples were made by mixing together a prostaglandin analogue, a liquid cyclic vinyl siloxane elastomer, a crosslinker, and a catalyst using a high-speed mixer and then heated the capped container at 70° C. for 24 hours to cure the mixture. A filler, such as a fumed silica, was also used to provide sufficient mechanical strength to the polymerized matrix. In addition, an inhibitor was used to slow the crosslinking reaction to a workable rate. The resulting thin-disc-shaped drug-loaded polymer matrix was allowed to cool to room temperature and then placed in 4° C. for 24 hours to increase stiffness of the material. The physical appearance of each drug-loaded polymer matrix test sample was examined visually and its mechanical properties analyzed using a durometer.

[2] = Chemical stability of prostaglandin analogues in PBS, RPHPLC; conditions: PBS at pH 4, 7 and 10; 4° C., 33° C. and 50° C.
Method: The chemical stability of prostaglandin analogues was also examined. In these experiments, a prostaglandin analogue was incubated in phospho-buffered saline (PBS) at pH 4, 7 and 10 and at 4° C., 33° C. and 50° C. representing long term storage, eye temperature and accelerate temperature conditions respectively. Analyses were performed by RPHPLC as described in Example 2, noting any hydrolysis products formed. […] This stability is most likely due to the amide linkage in Bimatoprost which is much more hydrolytically stable than the ester linkage in Latanoprost and Travoprost.

[3] = Modified Higuchi plot (2A versus Q^2/T)
Method: Travoprost and Latanoprost are oily liquids at room temperature whereas Bimatoprost is a solid at room temperature. To determine whether the liquid versus solid phase of these drugs affects their release from the silicone polymer matrix, data was analyzed using an alternative plot based on the Higuchi equation where twice the drug loading value (2A) is plotted on the […] and the average slope of the plot of cumulative drug released squared versus time in hours (Q^2/T) is plotted on the […].

[4] = Higuchi equation analysis of drug release data
Method: In order to ascertain whether the mechanism of drug release was based on diffusion, data obtained from various coated silicone polymer matrices were analyzed using the Higuchi equation. This analysis determined the linearity between the cumulative amount of drug released and the square root of time (SQRT). […] As exemplified FIG. 10, data is plotted as the square root of time taken on the x-axis and the cumulative percentage of drug release on the y-axis.

[5] = Korsmeyer-Peppas analysis of drug release data; conditions: for Average n Values, Korsmeyer-Peppas Analysis, Mean: Mean over drug loadings
Method: To confirm the results obtained based on the Higuchi equation analysis, the data above was also analyzed using the Korsmeyer-Peppas plot, which evaluates the mechanism of drug release by plotting the log of percent drug released over the log time in hours. If n equals 0.45, then Fickian diffusion is indicated for a cylinder (0.42 for cylinder of low aspect ratio). […] As exemplified FIG. 11, data is plotted as the log of cumulative percent drug released on the y-axis and the log time in hours on the x-axis.

[6] = In vitro drug release from silicone polymer matrix test samples in PBS pH 7.4 at 37° C., RPHPLC; conditions: for Daily Release Rate: 25% Latanoprost matrix plug, PTFE Thread Seal Tape coat, two 18G depot channels
Method: To test the controlled release properties of the disclosed drug-loaded silicone polymer matrices, the effects of a coating were examined. In these experiments, test samples were made as described in Example 1 to produce thin-disc-shaped drug-loaded polymer matrix. From this material, test samples were prepared by 1) cutting out rectangular polygons of about 3 mm length, about 1 mm width and about 1 mm height were cut from polymerized drug-loaded material; or 2) cutting out cylindrical plugs of about 3 mm length and having a diameter of about 0.5 mm to about 1 mm. The weight of the test samples were in the range about 0.1 mg to about 4 mg.
Certain of these cut test samples were then coated using one of three procedures. Cut test samples were coated with a polymer like poly(p-xylylene) (PARYLENE) to a thickness of about 0.10 μm to about 0.95 μm using a vapor phase deposition procedure. Similarly, cut test samples were coated a metal like titanium to a thickness of about 0.10 μm to about 0.95 μm using a vapor phase deposition procedure. Alternatively, cut test samples were physically wrapped with a tape like polytetrafluoroethylene tape and sealed using cyanoacrylate adhesive.
The presence of opening in a coated test sample was also examined. In these experiments, coated test samples were punctured to produce opening through the coating layer. From one to four opening were made using the tip of an 18G, 23G, 27G or 31G needle. Two types of opening were produced 1) surface pores which created openings only through the coating layer but left the polymer matrix intact; and 2) depot channels which created a tunnel through the entire coated test sample from one end to the other end.
To examine the drug release properties of a test sample, each sample was placed in 2 mL Eppendorf tube containing 1.5 mL of Phosphate Buffered Saline, pH 7.4 (PBS). These tubes were slowly rocked at 37° C. in an incubator. At given time points the PBS was completely removed from the tube and refilled with fresh PBS. An aliquot of the removed PBS was then analyzed by reversed phase HPLC (RPHPLC) to determine the amount of drug released from the test sample during the incubation period. In these experiments, a 10 μL injection of the test sample aliquot was run on an Agilent 1260 Infinity in a reverse phase isocratic mode using UV detection at 210 nm. The column was a Hypersil GOLD Phenyl column, (Dim. (mm) 250×4.6) and the mobile phase was a 1:1 mixture of acetonitrile to aqueous buffer (comprising HPLC grade water mixed with 5 mM ammonium acetate and 0.02% formic acid). The flow rate was 1.2 mL/min and column temperature was 22° C. Peak detection and quantitation was determined by establishing a calibration curve using known amounts of each drug tested and the amount of drug present in the test sample aliquot interpolated from this calibration curve using ChemStation software.

## CCNC(=O)CCC/C=C\C[C@@H]1[C@@H](/C=C/[C@@H](O)CCc2ccccc2)[C@H](O)C[C@@H]1O [Bimatoprost]
[1]; 15% or 20% Bimatoprost test samples
  mixing in the liquid siloxane elastomer: difficult to mix in the liquid siloxane elastomer
[1]; 20% Bimatoprost test sample
  physical examination of test sample: brittle and contained clumps of unincorporated components from the mixture
[2]
  chemical stability (hydrolysis products): excellent stability with Bimatoprost being the most stable
[3]; Loading (A %) 1.0
  average slope of cumulative drug released squared versus time in hours (Q^2/T): 0.204 ± 0.035
[3]; Loading (A %) 2.5
  average slope of cumulative drug released squared versus time in hours (Q^2/T): 0.387 ± 0.009
[3]; Loading (A %) 5.0
  average slope of cumulative drug released squared versus time in hours (Q^2/T): 1.680 ± 0.232
[3]; Loading (A %) 10
  average slope of cumulative drug released squared versus time in hours (Q^2/T): 2.327 ± 0.252
[3]; Table 10, FIG. 12 and FIG. 13
  relationship of Q^2/T to 2A in modified Higuchi plot: linear relationship
[4]; Drug Loading 1%
  Average Linear Regression r^2 Value, Higuchi Equation Analysis: 0.992
[4]; Drug Loading 2.5%
  Average Linear Regression r^2 Value, Higuchi Equation Analysis: 0.995
[4]; Drug Loading 5%
  Average Linear Regression r^2 Value, Higuchi Equation Analysis: 0.997
[4]; Drug Loading 10%
  Average Linear Regression r^2 Value, Higuchi Equation Analysis: 0.988
[4]; Drug Loading 15%
  Average Linear Regression r^2 Value, Higuchi Equation Analysis: 0.994
[4]; Drug Loading 20%
  Average Linear Regression r^2 Value, Higuchi Equation Analysis: 0.972
[5]; Drug Loading 1%
  Average n Values, Korsmeyer-Peppas Analysis: 0.326±
[5]; Drug Loading 2.5%
  Average n Values, Korsmeyer-Peppas Analysis: 0.372±
[5]; Drug Loading 5%
  Average n Values, Korsmeyer-Peppas Analysis: 0.411±
[5]; Drug Loading 10%
  Average n Values, Korsmeyer-Peppas Analysis: 0.377±
[5]; Drug Loading 15%
  Average n Values, Korsmeyer-Peppas Analysis: 0.380±
[5]; Drug Loading 20%
  Average n Values, Korsmeyer-Peppas Analysis: 0.601±
[5]
  Average n Values, Korsmeyer-Peppas Analysis, Mean: 0.37 ± 0.08

## CC(C)OC(=O)CCC/C=C\C[C@@H]1[C@@H](CC[C@@H](O)CCc2ccccc2)[C@H](O)C[C@@H]1O [Latanoprost]
[1]; 25% Latanoprost test sample
  physical examination of test sample: exhibited more elasticity but had a surface with tacky attributes and a consistency that was not fully homogeneous
[6]; day 7
  Daily Release Rate: 3.86 µg/day
[6]; day 19
  Daily Release Rate: 5.68 µg/day
[6]; day 29
  Daily Release Rate: 3.60 µg/day
[6]; day 64
  Daily Release Rate: 5.11 µg/day
[6]; day 71
  Daily Release Rate: 8.13 µg/day
[6]; day 106
  Daily Release Rate: 2.82 µg/day
[6]; day 122
  Daily Release Rate: 1.18 µg/day
[6]; coated test sample, 25% Latanoprost, four surface pores
  period of near zero order release: 42 days
[6]; coated test sample, 25% Latanoprost, four surface pores, as of 140 days
  total amount of drug released: 2.2%
[6]; uncoated silicone polymer matrix loaded with 10% Latanoprost, FIG. 5
  release profile: rapid release of the drug over the first five days, which then tapers off and by day 12 shows no further significant release of Latanoprost
[4]; Drug Loading 5%
  Average Linear Regression r^2 Value, Higuchi Equation Analysis: 0.964
[4]; Drug Loading 10%
  Average Linear Regression r^2 Value, Higuchi Equation Analysis: 0.983
[4]; Drug Loading 15%
  Average Linear Regression r^2 Value, Higuchi Equation Analysis: 0.990
[4]; Drug Loading 20%
  Average Linear Regression r^2 Value, Higuchi Equation Analysis: 0.990
[5]; Drug Loading 5%
  Average n Values, Korsmeyer-Peppas Analysis: 0.504±
[5]; Drug Loading 10%
  Average n Values, Korsmeyer-Peppas Analysis: 0.501±
[5]; Drug Loading 15%
  Average n Values, Korsmeyer-Peppas Analysis: 0.712±
[5]; Drug Loading 20%
  Average n Values, Korsmeyer-Peppas Analysis: 1.200±
[5]
  Average n Values, Korsmeyer-Peppas Analysis, Mean: 0.57 ± 0.16
